Among the data in PubChem BioAssay (NCI) are GI50 and TGI values, retold here.

Some test systems named below: DU-145 prostate; OVCAR-8 ovarian; NCI-H522 lung; UACC-257 melanoma; MCF7 breast; HOP-92 NSCLC; SN12C renal; SR leukemia; NCI-H460 lung; SK-MEL-2 melanoma.
What all share (assay): DTP human tumour cell line panel, 48 h

Values joined by “and” are separate entries in the source; they are usually repeats but may differ in a detail not shown here. Identical values can stand only once.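 Cells were grown in 96-well plates and exposed to each compound for 48 hours at five concentrations; endpoints were interpolated linearly between bracketing concentrations, or set to the highest concentration if not reached. GI50 marks 50% less growth. TGI: total growth inhibition.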

Turning to `Clc1ccc2c(c1)N(C1CCCN(Cc3ccccc3)C1)c1ccccc1S2` (centres undefined), the GI50 in the experiment on DU-145 prostate was 4030 nM; with OVCAR-8 ovarian, 6360 nM; with NCI-H522 lung it was 2130 nM; in the experiment on UACC-257 melanoma, 18300 nM; in the experiment on MCF7 breast, 3250 nM; with HOP-92 NSCLC it was 4680 nM. The GI50 was 5790 nM in the experiment on SN12C renal, 3010 nM in the experiment with SR leukemia and 3170 nM with NCI-H460 lung. Besides, the TGI in the experiment with DU-145 prostate is 19700 nM; in the experiment with OVCAR-8 ovarian, more than 100000 nM; with NCI-H522 lung it was 6300 nM; in the experiment on UACC-257 melanoma it was more than 100000 nM; in the experiment on MCF7 breast, more than 100000 nM; in the experiment on HOP-92 NSCLC, 74200 nM. Also, the TGI with SN12C renal was more than 100000 nM; in the experiment on SR leukemia, 32700 nM; in the experiment with NCI-H460 lung, 10400 nM.
Consider `COc1ccc(S(=O)(=O)Nc2c(/C=C\c3cc(OC)c(OC)c(OC)c3)ccc(OC)c2O)cc1`, for which the GI50 in the experiment with DU-145 prostate was 42.5 nM; with OVCAR-8 ovarian it was 46.6 nM; in the experiment with NCI-H522 lung, 20.2 nM; in the experiment with SK-MEL-2 melanoma it was 43.7 nM; with MCF7 breast, 38 nM; in the experiment on HOP-92 NSCLC, 1600 nM. Besides, the values for the GI50 in the experiment on SN12C renal, in the experiment with SR leukemia and with NCI-H460 lung were 86.9 nM, 31.9 nM and 36.8 nM, respectively. Also, the TGI in the experiment with DU-145 prostate was more than 100000 nM; in the experiment on OVCAR-8 ovarian it was more than 100000 nM; in the experiment on NCI-H522 lung, 53.6 nM; in the experiment on SK-MEL-2 melanoma it was 37100 nM; in the experiment with MCF7 breast it was more than 100000 nM; in the experiment with HOP-92 NSCLC it was 39700 nM. Moreover, the TGI was more than 100000 nM in the experiment on SN12C renal, 16200 nM with SR leukemia and 13700 nM in the experiment with NCI-H460 lung.
With `CNC(=O)c1c(F)cccc1Nc1nc(Nc2cc3c(cc2OC)CCN3C(=O)CN(C)C)nc2[nH]ccc12`, the GI50 in the experiment on DU-145 prostate was 7370 nM; with OVCAR-8 ovarian it was 2790 nM; in the experiment with NCI-H522 lung it was 1560 nM; with SK-MEL-2 melanoma, 4870 nM; in the experiment with MCF7 breast, 359 nM; with HOP-92 NSCLC, 30.9 nM. The GI50 in the experiment on SN12C renal was 3880 nM; in the experiment with SR leukemia it was 20.3 nM; in the experiment on NCI-H460 lung it was 6200 nM. Further, the TGI in the experiment on DU-145 prostate was determined as 24900 nM; in the experiment on OVCAR-8 ovarian, 8500 nM; with NCI-H522 lung it was 3630 nM; in the experiment on SK-MEL-2 melanoma, 19800 nM; in the experiment with MCF7 breast, 2880 nM; in the experiment with HOP-92 NSCLC, 1600 nM. Besides, the TGI with SN12C renal was 9810 nM; with SR leukemia it was more than 100000 nM; with NCI-H460 lung, 30100 nM.
With `NC(Cc1c[nH]c2ccc([N+](=O)[O-])cc12)C(=O)O` (centres undefined), the TGI with DU-145 prostate, with OVCAR-8 ovarian, with NCI-H522 lung, in the experiment with SK-MEL-2 melanoma, with UACC-257 melanoma and in the experiment with MCF7 breast was more than 100000 nM each time. Further, the TGI with SN12C renal and with SR leukemia was more than 100000 nM each time.
In the case of `COc1ccccc1[As]=[As]c1ccccc1OC` (centres undefined), the GI50 was 54.2 nM with DU-145 prostate; 50.7 nM in the experiment on OVCAR-8 ovarian; 16.5 nM in the experiment on NCI-H522 lung; 157 nM with SK-MEL-2 melanoma; 77.5 nM with UACC-257 melanoma; 21 nM in the experiment with MCF7 breast. Also, the GI50 in the experiment on HOP-92 NSCLC was 102 nM; with SN12C renal, 48.9 nM; in the experiment with SR leukemia it was 27.7 nM; in the experiment with NCI-H460 lung, 96 nM. Moreover, the TGI was 173 nM with DU-145 prostate; 194 nM in the experiment with OVCAR-8 ovarian; 37.6 nM with NCI-H522 lung; 300 nM in the experiment on SK-MEL-2 melanoma; 218 nM in the experiment on UACC-257 melanoma; 60.4 nM in the experiment on MCF7 breast. For the same compound, the TGI with HOP-92 NSCLC turned out to be 228 nM; in the experiment on SN12C renal it was 179 nM; with SR leukemia, 70.7 nM; in the experiment on NCI-H460 lung, 334 nM.
Take `N#Cc1nc(C#N)c(Sc2ccccc2)c(Sc2ccccc2)c1Sc1ccccc1`: the GI50 in the experiment with DU-145 prostate was 667 nM; in the experiment on OVCAR-8 ovarian it was 287 nM; in the experiment on NCI-H522 lung, 208 nM; in the experiment on SK-MEL-2 melanoma, 2170 nM; in the experiment with UACC-257 melanoma, 1370 nM; with MCF7 breast it was 565 nM. The GI50 with HOP-92 NSCLC is 2520 nM; with SN12C renal it was 191 nM; with SR leukemia, 305 nM; in the experiment with NCI-H460 lung, 2350 nM. Moreover, the TGI was 2880 nM with DU-145 prostate; 911 nM in the experiment with OVCAR-8 ovarian; 645 nM in the experiment with NCI-H522 lung; more than 21600 nM in the experiment with SK-MEL-2 melanoma; 2940 nM in the experiment on UACC-257 melanoma; 2410 nM in the experiment with MCF7 breast. For the same compound, the TGI in the experiment with HOP-92 NSCLC is 20900 nM; with SN12C renal, 378 nM; with SR leukemia it was more than 100000 nM; with NCI-H460 lung, more than 27600 nM.
Take `CC[C@H](C)[C@H](NC(=O)[C@H]1CCCCN1C)C(=O)N(C)[C@H](C[C@@H](OC(C)=O)c1cccc(C(=O)N[C@@H](Cc2ccccc2)C[C@H](C)C(=O)O)n1)C(C)C`: the GI50 with DU-145 prostate is 2.86 nM and 2.5 nM; with OVCAR-8 ovarian it was 5.42 nM and 2.5 nM; in the experiment on NCI-H522 lung, 0.5 nM and < 2.5 nM; with SK-MEL-2 melanoma, 0.774 nM and 2.5 nM; in the experiment on MCF7 breast it was 0.341 nM and 2.5 nM; in the experiment with SN12C renal it was 4.17 nM and 2.5 nM. Moreover, the GI50 in the experiment with SR leukemia is 0.529 nM and 2.5 nM; in the experiment with NCI-H460 lung, 2.78 nM and 2.5 nM. Moreover, the TGI was more than 25000 nM with DU-145 prostate; more than 25000 nM in the experiment on OVCAR-8 ovarian; less than 2.5 nM in the experiment with NCI-H522 lung; more than 25000 nM in the experiment on SK-MEL-2 melanoma; more than 25000 nM with MCF7 breast; more than 25000 nM with SN12C renal. Also, the TGI in the experiment with SR leukemia and with NCI-H460 lung was more than 25000 nM each time.
On to `CCC(C)C1=C(O)[N+]2([O-])Oc3ccc(C4=C(O)C(=O)C(c5ccc(O)cc5)=C(O)C4=O)cc3OC2(C(C)CC)C(=O)N1O` (centres undefined), for which the GI50 was 30900 nM in the experiment with DU-145 prostate; 6340 nM in the experiment on OVCAR-8 ovarian; 19000 nM with NCI-H522 lung; 11500 nM in the experiment on UACC-257 melanoma; 4250 nM in the experiment on MCF7 breast; 9290 nM in the experiment with HOP-92 NSCLC. The GI50 was 1250 nM in the experiment with SR leukemia and 4260 nM in the experiment on NCI-H460 lung. Moreover, the TGI with DU-145 prostate, in the experiment on OVCAR-8 ovarian, in the experiment on NCI-H522 lung, in the experiment with UACC-257 melanoma, in the experiment on MCF7 breast and in the experiment on HOP-92 NSCLC was more than 100000 nM throughout. Besides, the TGI with SR leukemia is 7810 nM; in the experiment with NCI-H460 lung it was more than 100000 nM.

In general, GI50 refers to the concentration at which growth is held to half of that of the control. As usually defined, the TGI is the concentration at which net growth stops.
